The pEC50 is the EC50 on a negative log10 scale, so that one unit is a factor of ten. One may read the Emax as the maximal effect, on the per cent scale that the assay sets.

pEC50: −log10 of the molar value. The source made the active and inactive calls. No cut-off for these calls is given here.

Data set [1] has as its system Mus musculus. Put plainly: Induction of withdrawal symptoms in chronic morphine-exposed Swiss-Webster mouse assessed as decrease in wet dog shakes at 1 mg/kg, sc measured over 20 mins. It is filed as organism-based. Set-up: dose 1 mg/kg, route subcutaneous. The following applies: in vivo.
Data set [2] has as its system Mus musculus. Description: Induction of withdrawal symptoms in chronic morphine-exposed Swiss-Webster mouse assessed as decrease in escape jumps at 1 mg/kg, sc measured over 20 mins. Particulars: in vivo. Set-up: dose 1 mg/kg, route subcutaneous. It is filed as organism-based.
In data set [3] the target is T1, Kappa-type opioid receptor (Homo sapiens, UniProt P41145). Description: Partial agonist activity at human kappa opioid receptor expressed in CHO cells assessed as stimulation of [35S]-GTPgammaS binding after 3 hrs by liquid scintillation counting analysis. It is filed as functional, cell-based. On the technique in general: GTPγS resists hydrolysis and so accumulates on activated G proteins.

The species named for data set [4] is Homo sapiens. Put plainly: Selectivity ratio of Ki for mu opioid receptor (unknown origin) to Ki for kappa opioid receptor (unknown origin).
Data set [5] concerns Mus musculus. Description: Induction of withdrawal symptoms in chronic morphine-exposed Swiss-Webster mouse assessed as decrease in wet dog shakes at 10 to 30 mg/kg, sc measured over 20 mins. It is filed as organism-based. Set-up: dose 10-30 mg/kg, route subcutaneous. Particulars: in vivo.
The target of data set [6] is Delta-type opioid receptor (Homo sapiens) (UniProt P41143). Put plainly: Agonist activity at delta opioid receptor (unknown origin) expressed in CHO cell membranes assessed as stimulation of [35S]-GTPgammaS binding after 1.5 hrs relative to SNC80. Format: functional.
Data set [7] relates to Mus musculus. Description: Antinociceptive activity in Swiss-Webster mouse up to 30 mg/kg, sc by warm-water tail-flick assay. Format: functional, organism-based. On the set-up: dose 30 mg/kg. For orientation: Thermal pain tests record how soon the animal reacts.
In data set [8] the test system is Mus musculus. Description: Induction of withdrawal symptoms in chronic morphine-exposed Swiss-Webster mouse assessed as decrease in escape jumps at 30 mg/kg, sc measured over 20 mins. It is filed as organism-based. On the set-up: dose 30 mg/kg, route subcutaneous. The following applies: in vivo.
Data set [9] addresses T2, Mu-type opioid receptor (Homo sapiens, UniProt P35372). Description: Agonist activity at mu opioid receptor (unknown origin) expressed in CHO cell membranes assessed as stimulation of [35S]-GTPgammaS binding at 10 uM after 1.5 hrs relative to DAMGO. It is filed as functional.
Data set [10] relates to Mus musculus. Description: Reduction of morphine-induced antinociceptive activity in sc dosed Swiss-Webster mouse assessed as dose required to antagonize morphine effect by warm-water tail-flick assay. Format: functional.
Data set [11] is filed under the species Homo sapiens. Description: Selectivity ratio of Ki for delta opioid receptor (unknown origin) to Ki for mu opioid receptor (unknown origin).
For data set [12], the species on record is Homo sapiens. Description: Selectivity ratio of Ki for delta opioid receptor (unknown origin) to Ki for kappa opioid receptor (unknown origin).
Data set [13] concerns Mus musculus. Description: Induction of withdrawal symptoms in chronic morphine-exposed Swiss-Webster mouse assessed as decrease in wet dog shakes at 3 mg/kg, sc measured over 20 mins. It is filed as organism-based. On the set-up: dose 3 mg/kg, route subcutaneous. The following applies: in vivo.
The test system of data set [14] is Mus musculus. Put plainly: Induction of withdrawal symptoms in chronic morphine-exposed Swiss-Webster mouse assessed as decrease in escape jumps at 3 to 10 mg/kg, sc measured over 20 mins. It is filed as organism-based. Set-up: dose 3-10 mg/kg, route subcutaneous. The following applies: in vivo.
In data set [15] the target is T1, Kappa-type opioid receptor. Put plainly: Agonist activity at kappa opioid receptor (unknown origin) expressed in CHO cell membranes assessed as stimulation of [35S]-GTPgammaS binding after 1.5 hrs relative to U50488. Format: functional.
For data set [16], the species on record is Homo sapiens. Put plainly: Selectivity ratio of Ki for kappa opioid receptor (unknown origin) to Ki for mu opioid receptor (unknown origin).
For data set [17], the target named is T2, Mu-type opioid receptor. Put plainly: Agonist activity at mu opioid receptor (unknown origin) expressed in CHO cell membranes assessed as stimulation of [35S]-GTPgammaS binding after 1.5 hrs relative to DAMGO. Format: functional.
Data set [18] has as its system Mus musculus. Put plainly: Induction of withdrawal symptoms in chronic morphine-exposed Swiss-Webster mouse assessed as decrease in escape jumps at 10 to 30 mg/kg, sc measured over 20 mins. On the set-up: dose 10-30 mg/kg, route subcutaneous. Particulars: in vivo. Format: organism-based.
Data set [19] is filed under the species Homo sapiens. Description: Selectivity ratio of Ki for human kappa opioid receptor to Ki for human mu opioid receptor.
Data set [20] is filed under the species Homo sapiens. Put plainly: Selectivity ratio of Ki for human delta opioid receptor to Ki for human mu opioid receptor.
The subject of data set [21] is Mus musculus. Put plainly: Induction of withdrawal symptoms in chronic morphine-exposed Swiss-Webster mouse assessed as decrease in wet dog shakes at 3 to 30 mg/kg, sc measured over 20 mins. Set-up: dose 3-30 mg/kg, route subcutaneous. Format: organism-based. Particulars: in vivo.

T1 sequence (P41145 whole entry): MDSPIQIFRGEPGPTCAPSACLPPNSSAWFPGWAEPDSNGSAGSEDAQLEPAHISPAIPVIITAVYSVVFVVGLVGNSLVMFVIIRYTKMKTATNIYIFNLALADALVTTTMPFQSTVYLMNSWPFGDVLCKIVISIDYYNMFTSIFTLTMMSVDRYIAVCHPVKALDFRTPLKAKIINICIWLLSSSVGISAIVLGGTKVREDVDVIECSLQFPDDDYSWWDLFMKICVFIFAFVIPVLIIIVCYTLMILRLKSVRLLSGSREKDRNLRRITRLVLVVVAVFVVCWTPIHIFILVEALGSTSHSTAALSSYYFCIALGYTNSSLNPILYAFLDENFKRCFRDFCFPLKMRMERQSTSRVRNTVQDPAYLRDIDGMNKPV
Delta-type opioid receptor (Homo sapiens), sequence (P41143 whole entry): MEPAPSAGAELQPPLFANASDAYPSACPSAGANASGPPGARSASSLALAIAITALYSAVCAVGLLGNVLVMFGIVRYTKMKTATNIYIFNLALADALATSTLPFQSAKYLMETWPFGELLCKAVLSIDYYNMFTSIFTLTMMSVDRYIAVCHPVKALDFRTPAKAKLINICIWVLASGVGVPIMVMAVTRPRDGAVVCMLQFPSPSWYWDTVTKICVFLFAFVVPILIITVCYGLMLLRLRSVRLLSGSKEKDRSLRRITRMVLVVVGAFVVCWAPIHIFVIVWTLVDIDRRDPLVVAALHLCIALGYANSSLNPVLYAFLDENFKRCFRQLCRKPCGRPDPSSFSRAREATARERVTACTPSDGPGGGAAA
T2 sequence (P35372 whole entry): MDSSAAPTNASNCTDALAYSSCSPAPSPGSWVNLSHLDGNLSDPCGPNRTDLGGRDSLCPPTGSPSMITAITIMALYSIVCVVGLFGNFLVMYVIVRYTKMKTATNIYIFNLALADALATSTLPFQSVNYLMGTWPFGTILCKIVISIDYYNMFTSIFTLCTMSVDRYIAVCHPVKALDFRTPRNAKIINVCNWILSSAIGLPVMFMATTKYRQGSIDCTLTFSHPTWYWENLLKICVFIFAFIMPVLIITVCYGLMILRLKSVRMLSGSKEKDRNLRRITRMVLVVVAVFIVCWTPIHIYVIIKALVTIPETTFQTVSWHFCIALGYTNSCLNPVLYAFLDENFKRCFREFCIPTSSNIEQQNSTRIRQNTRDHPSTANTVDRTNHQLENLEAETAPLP

With `O=C1CC[C@@]2(O)[C@H]3Cc4ccc(O)c5c4[C@@]2(CCN3CC2CC2)[C@H]1O5` [NALTREXONE], the Activity entry with Mus musculus [1] and with Mus musculus [2] was “Toxic” in each case.

Regarding `Oc1cccc2c1O[C@H]1CCC[C@H]3CN(CC4CC4)CC[C@@]231`, the pEC50 in data set [3] was 8.57.

As to `Cl.O=C(N[C@@]12CCC(=O)[C@@H]3Oc4c(O)ccc5c4[C@@]31CCN(CC1CC1)[C@@H]2C5)c1ccccn1`, the results for the Ratio Ki in the data set listed under Homo sapiens [4], in the data set listed under Homo sapiens [11] and in the data set listed under Homo sapiens [12] were 4.2, 63 and 263, respectively. For the same compound, the Activity result is “Toxic” in the data set on Mus musculus [5]; “Toxic” in the data set on Mus musculus [8]; 0.25 mg/kg in the data set on Mus musculus [10]; “Non-toxic” with Mus musculus [13]; “Non-toxic” in the data set on Mus musculus [14]. For the same compound, the figures for the Emax (in data set [6]; at Mu-type opioid receptor [9]; in data set [15]) were 8.6%, 0.9% and 24.9%, respectively. For the same compound, the outcome in the data set on Mus musculus [7] was inactive.

Consider `O=C(O[C@@]12CCC(=O)[C@@H]3Oc4c(O)ccc5c4[C@@]31CCN(CC1CC1)[C@@H]2C5)c1ccncc1`, for which the Ratio Ki in the data set listed under Homo sapiens [11] was 73; in the data set listed under Homo sapiens [12], 8.2; in the data set filed under Homo sapiens [16] it was 8.8.

As for `O=C(N[C@@]12CCC(=O)[C@@H]3Oc4c(O)ccc5c4[C@@]31CCN(CC1CC1)[C@@H]2C5)c1ccccc1`, the Ratio Ki in the data set filed under Homo sapiens [4] was 36; in the data set listed under Homo sapiens [11], 13; in the data set listed under Homo sapiens [12], 477. In addition, the Emax at Mu-type opioid receptor [17] came out at 5.8%.

Consider `O=C(O[C@@]12CCC(=O)[C@@H]3Oc4c(O)ccc5c4[C@@]31CCN(CC1CC1)[C@@H]2C5)c1ccc2ccccc2c1`, for which the Ratio Ki is 4 in the data set listed under Homo sapiens [11], 19 in the data set listed under Homo sapiens [12] and 0.21 in the data set listed under Homo sapiens [16].

Regarding `O=C(N[C@@]12CCC(=O)[C@@H]3Oc4c(O)ccc5c4[C@@]31CCN(CC1CC1)[C@@H]2C5)c1ccc2ccccc2c1`, the Ratio Ki was determined as 19 in the data set listed under Homo sapiens [4], 1.7 in the data set listed under Homo sapiens [11] and 32 in the data set filed under Homo sapiens [12]. Further, the Emax at Mu-type opioid receptor [17] worked out at 16.5%.

In the case of `O=C(N[C@@]12CCC(=O)[C@@H]3Oc4c(O)ccc5c4[C@@]31CCN(CC1CC1)[C@@H]2C5)c1cnc2ccccc2c1`, the Ratio Ki in the data set filed under Homo sapiens [4] stood at 8.7; in the data set listed under Homo sapiens [11] it was 1.3; in the data set filed under Homo sapiens [12] it was 11. Besides, the Emax at Mu-type opioid receptor [17] came to 15.8%.

`C=CCN1CC[C@]23c4c5ccc(O)c4O[C@H]2C(=O)CC[C@@]3(O)[C@H]1C5` [NALOXONE]: the Activity entry in the data set on Mus musculus [1] and in the data set on Mus musculus [2] was “Toxic” each time.

Consider `Cl.O=C(N[C@@]12CCC(=O)[C@@H]3Oc4c(O)ccc5c4[C@@]31CCN(CC1CC1)[C@@H]2C5)c1cccnc1`, for which the Ratio Ki in the data set listed under Homo sapiens [4] amounted to 4.7; in the data set listed under Homo sapiens [11], 53; in the data set listed under Homo sapiens [12] it was 249. Besides, the Activity result in the data set on Mus musculus [5] was “Toxic”; with Mus musculus [18], “Toxic”; in the data set on Mus musculus [10] it was 0.55 mg/kg. Moreover, the Emax in data set [6] came out at 10.3%; at Mu-type opioid receptor [9], 5.1%; in data set [15], 35.3%. Further, in the data set with Mus musculus [7], the outcome was inactive.

`O=C(N[C@@]12CCC(=O)[C@@H]3Oc4c(O)ccc5c4[C@@]31CCN(CC1CC1)[C@@H]2C5)c1ccncc1`: the Ratio Ki in the data set listed under Homo sapiens [4] came out at 2.5; in the data set listed under Homo sapiens [11], 13; in the data set listed under Homo sapiens [12], 33. In addition, the Emax on Mu-type opioid receptor [17] came out at 7.7%.

For the compound `O=C(CNC(=O)c1ccccn1)N[C@@]12CCC(=O)[C@@H]3Oc4c(O)ccc5c4[C@@]31CCN(CC1CC1)[C@@H]2C5`, the Ratio Ki in the data set listed under Homo sapiens [4] is 2.1; in the data set filed under Homo sapiens [11], 1.2; in the data set filed under Homo sapiens [12], 2.6. Moreover, at Mu-type opioid receptor [17], the maximal effect (Emax) was 11.8%.

Turning to `O=C(O[C@@]12CCC(=O)[C@@H]3Oc4c(O)ccc5c4[C@@]31CCN(CC1CC1)[C@@H]2C5)c1cnc2ccccc2c1`, the Emax at Mu-type opioid receptor [17] was found to be 22%. The Ratio Ki in the data set listed under Homo sapiens [11] stood at 304; in the data set filed under Homo sapiens [12] it was 5.5; in the data set listed under Homo sapiens [16], 55.

For `Cc1ccc(/C=C/C(=O)O[C@@]23CCC(=O)[C@@H]4Oc5c(O)ccc6c5[C@@]42CCN(CC2CC2)[C@@H]3C6)cc1`, the Ratio Ki worked out at 15 in the data set filed under Homo sapiens [19] and 31 in the data set listed under Homo sapiens [20].

Regarding `O=C(Cc1ccccn1)N[C@@]12CCC(=O)[C@@H]3Oc4c(O)ccc5c4[C@@]31CCN(CC1CC1)[C@@H]2C5`, the Ratio Ki in the data set listed under Homo sapiens [4] came to 1.5; in the data set filed under Homo sapiens [11], 14; in the data set listed under Homo sapiens [12], 21. Besides, at Mu-type opioid receptor [17], the Emax was 78%.

`O=C(O[C@@]12CCC(=O)[C@@H]3Oc4c(O)ccc5c4[C@@]31CCN(CC1CC1)[C@@H]2C5)c1ccccc1`: the Ratio Ki in the data set filed under Homo sapiens [12] was over 17; in the data set listed under Homo sapiens [16], 4.7.

Turning to `O=C(N[C@@]12CCC(=O)[C@@H]3Oc4c(O)ccc5c4[C@@]31CCN(CC1CC1)[C@@H]2C5)c1ccc2ccccc2n1`, the Ratio Ki turned out to be 35 in the data set filed under Homo sapiens [4], 1.7 in the data set filed under Homo sapiens [11] and 58 in the data set filed under Homo sapiens [12]. In addition, the Emax at Mu-type opioid receptor [17] is 34.4%.

For `O=C(CCc1ccccn1)N[C@@]12CCC(=O)[C@@H]3Oc4c(O)ccc5c4[C@@]31CCN(CC1CC1)[C@@H]2C5`, the values for the Ratio Ki in the data set listed under Homo sapiens [4], in the data set listed under Homo sapiens [11] and in the data set listed under Homo sapiens [12] were 1.9, 29 and 54, respectively. For the same compound, the Emax at Mu-type opioid receptor [17] was 12.7%.

For the compound `COc1cccc2c1[C@]13CCN(CC4CC4)[C@H](C2)[C@]1(OC)CCC(=O)C3` [CYPRODIME], the Ratio Ki in the data set listed under Homo sapiens [11] came out at 39; in the data set filed under Homo sapiens [16], 10.

With `O=C(O[C@@]12CCC(=O)[C@@H]3Oc4c(O)ccc5c4[C@@]31CCN(CC1CC1)[C@@H]2C5)c1ccccn1`, the Ratio Ki in the data set listed under Homo sapiens [11] was 838; in the data set listed under Homo sapiens [12] it was 4.6; in the data set filed under Homo sapiens [16] it was 182.

On to `Cc1ccc(/C=C/C(=O)N[C@@]23CCC(=O)[C@@H]4Oc5c(O)ccc6c5[C@@]42CCN(CC2CC2)[C@@H]3C6)cc1`, for which the Ratio Ki turned out to be 3 in the data set listed under Homo sapiens [19] and 1 in the data set listed under Homo sapiens [20].

For the compound `O=C(O[C@@]12CCC(=O)[C@@H]3Oc4c(O)ccc5c4[C@@]31CCN(CC1CC1)[C@@H]2C5)c1cccnc1`, the results for the Ratio Ki in the data set listed under Homo sapiens [11], in the data set listed under Homo sapiens [12] and in the data set listed under Homo sapiens [16] were 107, 3.6 and 30, respectively.

Turning to `Cl.O=C(N[C@@]12CCC(=O)[C@@H]3Oc4c(O)ccc5c4[C@@]31CCN(CC1CC1)[C@@H]2C5)c1cc2ccccc2cn1`, the Ratio Ki in the data set listed under Homo sapiens [4] was 13; in the data set filed under Homo sapiens [11], 7.2; in the data set filed under Homo sapiens [12] it was 93. For the same compound, the values for the Emax (in data set [6]; on Mu-type opioid receptor [9]; in data set [15]) were 23.8%, 2.8% and 16.8%, respectively. The Activity result in the data set on Mus musculus [21] is “Toxic”; with Mus musculus [8] it was “Toxic”; in the data set with Mus musculus [10], 0.87 mg/kg; with Mus musculus [14] it was “Non-toxic”. In addition, the result in the data set with Mus musculus [7] was inactive.

Consider `O=C(O[C@@]12CCC(=O)[C@@H]3Oc4c(O)ccc5c4[C@@]31CCN(CC1CC1)[C@@H]2C5)c1ccc2ccccc2n1`, for which the Ratio Ki in the data set filed under Homo sapiens [11] was 16; in the data set filed under Homo sapiens [12], 0.34; in the data set listed under Homo sapiens [16], 47.
